Reference: ChEMBL document CHEMBL5649169 (ChemMedChem, 2018)

Assays:
[1] = target: Inositol 1,4,5-trisphosphate-gated calcium channel ITPR1 (Homo sapiens) (UniProt Q14643)
[2] = target: Nascent polypeptide-associated complex subunit alpha (Homo sapiens) (UniProt Q13765)
[3] = target: DnaJ homolog subfamily C member 13 (Homo sapiens) (UniProt O75165)
[4] = target: Prospero homeobox protein 1 (Homo sapiens) (UniProt Q92786)
Macoilin (Homo sapiens) = Macoilin (Homo sapiens) (UniProt Q8N5G2)
Copine-4 (Homo sapiens) = Copine-4 (Homo sapiens) (UniProt Q96A23)
[5] = target: STE20-related kinase adapter protein alpha (Homo sapiens) (UniProt Q7RTN6)
[6] = target: Unconventional myosin-Ig (Homo sapiens) (UniProt B0I1T2)
[7] = target: Calcium-binding and coiled-coil domain-containing protein 2 (Homo sapiens) (UniProt Q13137)
[8] = target: Small ribosomal subunit protein mS34 (Homo sapiens) (UniProt P82930)
[9] = target: Zinc finger CCHC domain-containing protein 8 (Homo sapiens) (UniProt Q6NZY4)
[10] = target: Nucleolar MIF4G domain-containing protein 1 (Homo sapiens) (UniProt Q5C9Z4)
[11] = target: Nucleosome assembly protein 1-like 4 (Homo sapiens) (UniProt Q99733)
[12] = target: SWI/SNF-related matrix-associated actin-dependent regulator of chromatin subfamily A member 1 (Homo sapiens) (UniProt P28370)
[13] = target: Mitochondrial 2-oxodicarboxylate carrier (Homo sapiens) (UniProt Q9BQT8)
[14] = target: c-Myc-binding protein (Homo sapiens) (UniProt Q99417)
[15] = target: Bone morphogenetic protein receptor type-1A (Homo sapiens) (UniProt P36894)
[16] = target: Nuclear factor NF-kappa-B p105 subunit (Homo sapiens) (UniProt P19838)
[17] = target: Small nuclear ribonucleoprotein F (Homo sapiens) (UniProt P62306)
[18] = target: Hydroxyacyl-coenzyme A dehydrogenase, mitochondrial (Homo sapiens) (UniProt Q16836)
[19] = target: Small ribosomal subunit protein uS2m (Homo sapiens) (UniProt Q9Y399)
[20] = target: Sorting nexin-9 (Homo sapiens) (UniProt Q9Y5X1)
[21] = target: General transcription factor IIF subunit 2 (Homo sapiens) (UniProt P13984)
[22] = target: Acetyl-CoA carboxylase 2 (Homo sapiens) (UniProt O00763)
Homo sapiens [23] = species: Homo sapiens
[24] = target: Protein kinase C zeta type (Homo sapiens) (UniProt Q05513)
Homo sapiens [25] = species: Homo sapiens; remark: listed apart in the source
[26] = target: ATP-dependent RNA helicase DHX29 (Homo sapiens) (UniProt Q7Z478)
[27] = target: Antigen peptide transporter 1 (Homo sapiens) (UniProt Q03518)
[28] = target: Serine/arginine-rich splicing factor 9 (Homo sapiens) (UniProt Q13242)
[29] = target: Pleckstrin homology domain-containing family G member 3 (Homo sapiens) (UniProt A1L390)
[30] = target: Signal recognition particle 19 kDa protein (Homo sapiens) (UniProt P09132)
[31] = target: Man(5)GlcNAc(2)-PP-dolichol translocation protein RFT1 (Homo sapiens) (UniProt Q96AA3)
[32] = target: PAS domain-containing serine/threonine-protein kinase (Homo sapiens) (UniProt Q96RG2)
[33] = target: Phenylalanine--tRNA ligase beta subunit (Homo sapiens) (UniProt Q9NSD9)
[34] = target: N-acetylneuraminate-9-phosphate synthase (Homo sapiens) (UniProt Q9NR45)
[35] = target: Serine-threonine kinase receptor-associated protein (Homo sapiens) (UniProt Q9Y3F4)
[36] = target: Tubulin beta-2B chain (Homo sapiens) (UniProt Q9BVA1)
[37] = target: Very-long-chain (3R)-3-hydroxyacyl-CoA dehydratase 3 (Homo sapiens) (UniProt Q9P035)
[38] = target: Phosphopentomutase (Homo sapiens) (UniProt Q96G03)
[39] = target: Ras-related protein Rab-6A (Homo sapiens) (UniProt P20340)
[40] = target: 14-3-3 protein beta/alpha (Homo sapiens) (UniProt P31946)
[41] = target: 10 kDa heat shock protein, mitochondrial (Homo sapiens) (UniProt P61604)
[42] = target: Thioredoxin reductase 1, cytoplasmic (Homo sapiens) (UniProt Q16881)
[43] = target: DNA mismatch repair protein Msh6 (Homo sapiens) (UniProt P52701)
[44] = target: Importin-7 (Homo sapiens) (UniProt O95373)
Also: assay method not described here.

Sequence of Phenylalanine--tRNA ligase beta subunit (Homo sapiens) (Q9NSD9 whole entry): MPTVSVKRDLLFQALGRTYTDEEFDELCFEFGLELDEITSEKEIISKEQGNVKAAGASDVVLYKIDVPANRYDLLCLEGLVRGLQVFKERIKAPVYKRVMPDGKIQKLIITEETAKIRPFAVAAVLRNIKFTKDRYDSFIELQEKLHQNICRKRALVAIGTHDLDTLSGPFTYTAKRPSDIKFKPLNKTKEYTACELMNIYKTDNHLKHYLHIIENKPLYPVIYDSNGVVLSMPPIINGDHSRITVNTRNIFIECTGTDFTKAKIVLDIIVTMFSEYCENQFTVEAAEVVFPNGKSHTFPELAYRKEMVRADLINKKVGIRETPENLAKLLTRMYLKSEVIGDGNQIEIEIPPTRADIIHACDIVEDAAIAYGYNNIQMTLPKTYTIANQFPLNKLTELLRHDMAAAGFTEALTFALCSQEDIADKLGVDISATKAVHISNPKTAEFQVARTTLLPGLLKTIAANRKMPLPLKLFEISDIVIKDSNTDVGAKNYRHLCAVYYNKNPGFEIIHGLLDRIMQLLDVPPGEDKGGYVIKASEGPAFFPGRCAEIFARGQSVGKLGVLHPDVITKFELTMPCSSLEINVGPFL
Sequence of Zinc finger CCHC domain-containing protein 8 (Homo sapiens) (Q6NZY4 whole entry, the tested form may be a part): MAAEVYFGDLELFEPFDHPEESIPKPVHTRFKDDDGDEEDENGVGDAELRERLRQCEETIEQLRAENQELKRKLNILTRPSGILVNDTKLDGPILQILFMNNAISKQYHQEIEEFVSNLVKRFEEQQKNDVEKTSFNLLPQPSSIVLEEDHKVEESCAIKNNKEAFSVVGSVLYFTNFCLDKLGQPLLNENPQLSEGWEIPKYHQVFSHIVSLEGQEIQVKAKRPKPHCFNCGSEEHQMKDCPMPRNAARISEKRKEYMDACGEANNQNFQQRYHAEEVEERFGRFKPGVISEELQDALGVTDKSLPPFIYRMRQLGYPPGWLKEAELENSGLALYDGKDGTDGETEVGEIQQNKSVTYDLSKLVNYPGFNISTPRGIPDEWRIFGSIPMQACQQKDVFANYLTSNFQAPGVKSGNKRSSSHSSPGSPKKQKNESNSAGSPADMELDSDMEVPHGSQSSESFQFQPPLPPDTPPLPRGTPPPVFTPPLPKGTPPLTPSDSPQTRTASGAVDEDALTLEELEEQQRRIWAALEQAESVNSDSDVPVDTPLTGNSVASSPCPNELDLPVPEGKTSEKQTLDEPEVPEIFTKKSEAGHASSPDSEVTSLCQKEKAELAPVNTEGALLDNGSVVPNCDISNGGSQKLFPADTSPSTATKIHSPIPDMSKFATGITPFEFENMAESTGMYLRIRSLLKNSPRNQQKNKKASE
Sequence of PAS domain-containing serine/threonine-protein kinase (Homo sapiens) (Q96RG2 whole entry, the tested form may be a part): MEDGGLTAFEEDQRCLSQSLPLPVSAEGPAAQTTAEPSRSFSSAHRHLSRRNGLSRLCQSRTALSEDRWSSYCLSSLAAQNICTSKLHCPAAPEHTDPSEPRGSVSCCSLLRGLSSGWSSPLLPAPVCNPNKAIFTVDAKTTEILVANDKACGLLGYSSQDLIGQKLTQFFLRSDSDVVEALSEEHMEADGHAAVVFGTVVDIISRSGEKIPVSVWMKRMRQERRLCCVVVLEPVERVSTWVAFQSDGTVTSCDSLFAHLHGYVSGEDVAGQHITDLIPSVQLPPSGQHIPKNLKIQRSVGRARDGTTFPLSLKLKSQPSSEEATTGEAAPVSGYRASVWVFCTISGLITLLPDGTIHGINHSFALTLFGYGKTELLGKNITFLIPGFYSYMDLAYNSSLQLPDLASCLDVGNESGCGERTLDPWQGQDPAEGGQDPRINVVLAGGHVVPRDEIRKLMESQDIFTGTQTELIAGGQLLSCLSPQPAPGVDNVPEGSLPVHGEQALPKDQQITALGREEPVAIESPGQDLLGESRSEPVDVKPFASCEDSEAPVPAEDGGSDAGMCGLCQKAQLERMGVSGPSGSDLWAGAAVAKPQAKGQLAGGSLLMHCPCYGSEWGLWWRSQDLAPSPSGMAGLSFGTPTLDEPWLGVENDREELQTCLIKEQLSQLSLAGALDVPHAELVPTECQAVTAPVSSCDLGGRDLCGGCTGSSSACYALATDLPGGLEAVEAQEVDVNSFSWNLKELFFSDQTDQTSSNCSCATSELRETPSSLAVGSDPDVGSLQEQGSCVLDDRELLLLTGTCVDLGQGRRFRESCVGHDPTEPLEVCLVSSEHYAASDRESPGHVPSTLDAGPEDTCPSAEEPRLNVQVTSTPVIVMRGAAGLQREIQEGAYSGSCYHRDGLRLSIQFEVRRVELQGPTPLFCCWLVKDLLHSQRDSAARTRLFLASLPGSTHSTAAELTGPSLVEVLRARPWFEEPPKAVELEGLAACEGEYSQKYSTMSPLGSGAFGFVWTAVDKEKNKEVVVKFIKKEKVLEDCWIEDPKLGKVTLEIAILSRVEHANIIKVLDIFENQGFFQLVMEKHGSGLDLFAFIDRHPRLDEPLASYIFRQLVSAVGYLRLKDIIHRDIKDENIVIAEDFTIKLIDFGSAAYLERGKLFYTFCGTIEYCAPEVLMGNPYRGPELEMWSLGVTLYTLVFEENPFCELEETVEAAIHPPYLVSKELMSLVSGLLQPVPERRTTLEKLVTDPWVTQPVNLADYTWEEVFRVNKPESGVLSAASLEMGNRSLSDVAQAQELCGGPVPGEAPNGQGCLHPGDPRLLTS
Sequence of Signal recognition particle 19 kDa protein (Homo sapiens) (P09132 whole entry): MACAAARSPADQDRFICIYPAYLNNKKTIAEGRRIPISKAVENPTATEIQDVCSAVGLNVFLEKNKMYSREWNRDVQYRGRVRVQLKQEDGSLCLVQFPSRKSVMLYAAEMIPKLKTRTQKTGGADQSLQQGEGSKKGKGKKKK
Sequence of Prospero homeobox protein 1 (Homo sapiens) (Q92786 whole entry): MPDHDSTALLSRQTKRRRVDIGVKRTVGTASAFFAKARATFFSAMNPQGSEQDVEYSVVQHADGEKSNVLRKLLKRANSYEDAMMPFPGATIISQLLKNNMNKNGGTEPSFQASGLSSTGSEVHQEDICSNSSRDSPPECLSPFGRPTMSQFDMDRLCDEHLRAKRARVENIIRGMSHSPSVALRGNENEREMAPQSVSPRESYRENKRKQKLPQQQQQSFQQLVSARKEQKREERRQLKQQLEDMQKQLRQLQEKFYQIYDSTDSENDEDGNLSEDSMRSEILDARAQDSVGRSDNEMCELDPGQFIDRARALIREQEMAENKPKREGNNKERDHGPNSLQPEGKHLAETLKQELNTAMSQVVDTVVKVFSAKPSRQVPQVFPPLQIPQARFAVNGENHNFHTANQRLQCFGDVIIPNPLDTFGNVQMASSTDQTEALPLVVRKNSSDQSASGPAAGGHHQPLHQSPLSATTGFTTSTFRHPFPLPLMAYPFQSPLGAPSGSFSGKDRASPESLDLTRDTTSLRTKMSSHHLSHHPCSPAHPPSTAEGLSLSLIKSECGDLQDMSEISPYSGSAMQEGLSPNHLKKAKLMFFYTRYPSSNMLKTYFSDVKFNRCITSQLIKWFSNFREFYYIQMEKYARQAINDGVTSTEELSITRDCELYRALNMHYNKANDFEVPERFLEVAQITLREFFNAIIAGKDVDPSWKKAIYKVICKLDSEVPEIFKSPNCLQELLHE
Sequence of 10 kDa heat shock protein, mitochondrial (Homo sapiens) (P61604 whole entry): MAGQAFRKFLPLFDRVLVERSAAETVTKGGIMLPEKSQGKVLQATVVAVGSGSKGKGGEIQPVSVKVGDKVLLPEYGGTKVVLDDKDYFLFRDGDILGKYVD
Sequence of 14-3-3 protein beta/alpha (Homo sapiens) (P31946 whole entry): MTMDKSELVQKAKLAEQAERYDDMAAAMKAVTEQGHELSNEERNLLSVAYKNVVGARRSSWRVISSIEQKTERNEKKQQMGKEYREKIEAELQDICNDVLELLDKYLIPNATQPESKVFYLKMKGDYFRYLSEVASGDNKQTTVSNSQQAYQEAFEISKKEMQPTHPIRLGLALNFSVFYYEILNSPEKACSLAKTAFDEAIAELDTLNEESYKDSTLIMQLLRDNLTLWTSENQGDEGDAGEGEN
Sequence of Phosphopentomutase (Homo sapiens) (Q96G03 whole entry): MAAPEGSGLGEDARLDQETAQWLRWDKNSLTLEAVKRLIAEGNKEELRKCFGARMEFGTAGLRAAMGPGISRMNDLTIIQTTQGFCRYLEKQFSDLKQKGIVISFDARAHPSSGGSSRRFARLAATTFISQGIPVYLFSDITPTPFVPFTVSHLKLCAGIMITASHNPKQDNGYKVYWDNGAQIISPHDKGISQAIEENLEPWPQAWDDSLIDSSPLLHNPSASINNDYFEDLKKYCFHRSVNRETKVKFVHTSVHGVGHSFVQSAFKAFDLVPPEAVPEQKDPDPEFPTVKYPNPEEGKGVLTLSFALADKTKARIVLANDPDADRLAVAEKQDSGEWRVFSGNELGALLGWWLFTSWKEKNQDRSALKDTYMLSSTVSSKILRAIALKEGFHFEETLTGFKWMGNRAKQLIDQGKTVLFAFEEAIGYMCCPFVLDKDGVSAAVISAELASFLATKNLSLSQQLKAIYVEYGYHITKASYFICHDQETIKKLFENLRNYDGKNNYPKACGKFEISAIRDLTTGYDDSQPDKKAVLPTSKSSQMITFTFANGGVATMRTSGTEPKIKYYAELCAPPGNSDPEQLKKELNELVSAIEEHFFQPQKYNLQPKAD
Sequence of STE20-related kinase adapter protein alpha (Homo sapiens) (Q7RTN6 whole entry): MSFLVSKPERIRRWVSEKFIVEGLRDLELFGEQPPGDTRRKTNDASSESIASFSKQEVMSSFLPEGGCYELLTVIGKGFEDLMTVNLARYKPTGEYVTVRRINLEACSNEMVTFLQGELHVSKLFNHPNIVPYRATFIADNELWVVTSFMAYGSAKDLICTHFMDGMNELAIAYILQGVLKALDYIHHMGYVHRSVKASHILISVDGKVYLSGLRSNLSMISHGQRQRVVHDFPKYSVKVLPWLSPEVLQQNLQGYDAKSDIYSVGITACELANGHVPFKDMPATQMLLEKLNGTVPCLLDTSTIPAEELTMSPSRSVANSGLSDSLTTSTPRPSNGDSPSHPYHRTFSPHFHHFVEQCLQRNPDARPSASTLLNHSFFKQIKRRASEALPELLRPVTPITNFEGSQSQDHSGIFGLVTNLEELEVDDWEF
Sequence of Small nuclear ribonucleoprotein F (Homo sapiens) (P62306 2-86 limits assumed): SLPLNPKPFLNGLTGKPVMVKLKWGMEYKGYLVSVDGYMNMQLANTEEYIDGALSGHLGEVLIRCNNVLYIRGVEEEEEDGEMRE

Structure (SMILES): Cc1ccc(C(=O)Nc2cccc(C(F)(F)F)c2)cc1Nc1nc(-c2cccnc2)nc2c1cnn2C
- ED50 [1]: 3.43 µM
- ED50 [2]: 0.0901 µM
- ED50 [3]: 10.3 µM
- ED50 [4]: 6.66 µM
- ED50 (Macoilin (Homo sapiens)): 0.092 µM
- ED50 (Copine-4 (Homo sapiens)): 0.00867 µM
- ED50 [5]: 0.0198 µM
- ED50 [6]: 0.00217 µM
- ED50 [7]: 0.675 µM
- ED50 [8]: 0.0279 µM
- ED50 [9]: 16.9 µM
- ED50 [10]: 0.00322 µM
- ED50 [11]: 9.2 µM
- ED50 [12]: 0.0141 µM
- ED50 [13]: 120 µM
- ED50 [14]: 249 µM
- ED50 [15]: 0.99 µM
- ED50 [16]: 0.657 µM
- ED50 [17]: 143 µM
- ED50 [18]: 0.00625 µM
- ED50 [19]: 4.88 µM
- ED50 [20]: 0.494 µM
- ED50 [21]: 7.69 µM
- ED50 [22]: 0.175 µM
- ED50 (Homo sapiens [23]): 0.000533 µM
- ED50 [24]: 6210 µM
- ED50 (Homo sapiens [25]): 4.42 µM
- ED50 [26]: 15.3 µM
- ED50 [27]: 0.0639 µM
- ED50 [28]: 0.0124 µM
- ED50 [29]: 0.00553 µM
- ED50 [30]: 10.1 µM
- ED50 [31]: 1.13 µM
- ED50 [32]: 14.7 µM
- ED50 [33]: 0.0971 µM

Structure (SMILES): Cc1ccc(C(=O)Nc2cccc(C(F)(F)F)c2)cc1Nc1nc(-c2cccnc2)nc2nn(C)cc12
- ED50 [34]: 0.09 µM
- ED50 [35]: 0.0177 µM
- ED50 [36]: 0.014 µM
- ED50 [37]: 0.0173 µM
- ED50 [38]: 149 µM
- ED50 [39]: 0.535 µM
- ED50 [40]: 0.0807 µM
- ED50 [41]: 0.0765 µM
- ED50 [42]: 0.19 µM
- ED50 [43]: 0.0495 µM
- ED50 [44]: 0.0181 µM
